Measurements: patent US20230346961A1, “GLP-1 AND GIP RECEPTOR CO-AGONISTS” (Novo Nordisk A/S, priority 2020, published 2023)
Each block holds one compound with its values, some of them ahead of it. Starred links: 1 amine or outer side, 2 acyl side, 3 side chain; linkers in the order of their positions; H or OH if unused. Non-standard residues stand in square brackets, D forms with d. Residues, ends and D or L forms follow the SMILES beside them. Groups on a side chain read outwards from the residue. *: point of attachment. C18 diacid = O=C(O)CCCCCCCCCCCCCCCCC(=O)*; γGlu = O=C(O)[C@H](CCC(=O)[*:2])N[*:1]; εLys = N[C@@H](CCCCN[*:1])C(=O)[*:2]; Aib = CC(C)(N)C(=O)O

Experiments:
[1] = tested on: diet-induced obese (DIO) mice; test: Pharmacodynamic study in DIO mice: body weight and food intake; assay type: in vivo, C57BL/6J male mice; details: for Absolute BW Day 14 / Change in BW Day 14 / Cumulative food intake Day 14: 14 days; for Cumulative food intake Day 14: n = 2-3
Description: The purpose of this example is to assess the in vivo effect of select compounds on pharmacodynamic parameters in diet-induced obese (DIO) mice. The animals were treated once daily via subcutaneous injection with a liquid formulation of the test compound to assess effects on body weight, foot intake, and glucose tolerance. For comparison, the known GLP-1R/GIPR co-agonist tirzepatide and a surrogate of the GLP-1R agonist semaglutide were used as references. The semaglutide surrogate has the same pharmacological properties of semaglutide but a slightly modified structure in which the γGlu element of the substituent has been changed from the L-isomer to the D-isomer.
C57BL/6J male mice were purchased from Jackson Laboratories at approximately 8 weeks of age. Mice were group housed and fed a high-fat, high-sugar diet from Research Diets (D12331). Mice were maintained on this diet for 12 weeks prior to initializing the pharmacology studies. Mice exceeding a measured body weight of 50 grams were considered diet-induced obese (DIO) and included in pharmacology studies. Mice were exposed to a controlled 12 h:12 h light:dark cycle at ambient room temperature (22° C.) with ab libitum access to food and water. Studies were approved by and performed according to the guidelines of the Institutional Animal Care and Use Committee of the University of Cincinnati.
Animals were dosed once daily, subcutaneously with either vehicle or test compound. All injections occurred during the middle of the light phase at a fixed volume of 2-5 microliters per gram body weight.
All compounds in the study were formulated in the following buffer: 50 mM phosphate; 70 mM sodium chloride; 0.05% Tween-80, pH 7.4. Dosing solutions were formulated in glass vials and stored at 2-8° C. Dosing solutions were brought to room temperature before dosing and returned to 2-8° C. after dosing.
DIO mice were distributed into groups (n=8 per group) such that statistical variations in the mean and standard deviations of fat mass and body weight were minimized between groups. The animals were grouped to receive treatment as follows: Vehicle, tirzepatide, semaglutide surrogate or a GLP-1/GIP receptor co-agonists as described herein, where vehicle is 50 mM phosphate, 70 mM sodium chloride; 0.05% Tween-80, pH 7.4. The test compounds were dissolved in the vehicle, to stock concentrations of 100 μM, then diluted 50-200 fold in the vehicle to achieve the desired dosing solution concentrations. Animals were dosed subcutaneously once daily in the morning for each day of treatment with dosing solution at a volume of 2-5 μL per gram of body weight as necessary to achieve the desired dose (eg 0.3 nmol/kg, 1.0 nmol/kg, or 3.0 nmol/kg).
Body weight (BW) and food intake were measured immediately prior to dosing each day. The percent change in body was calculated individually for each mouse based on initial body weight prior to the first injection.

[2] = tested on: diet-induced obese (DIO) mice; test: Pharmacodynamic study in DIO mice: IPGTT (intraperitoneal glucose tolerance test); assay type: in vivo, C57BL/6J male mice; details: glucose 2 g/kg i.p., mean ± SEM; for iAUC, IPGTT Day 31: 30 days; for iAUC, IPGTT Day 15: 14 days
human glucagon receptor = human glucagon receptor (Homo sapiens, UniProt P47871); test: cell-based
mouse GLP-1 receptor = target: T1, mouse GLP-1 receptor (Mus musculus, UniProt O35659)
T1 sequence (O35659 22-463): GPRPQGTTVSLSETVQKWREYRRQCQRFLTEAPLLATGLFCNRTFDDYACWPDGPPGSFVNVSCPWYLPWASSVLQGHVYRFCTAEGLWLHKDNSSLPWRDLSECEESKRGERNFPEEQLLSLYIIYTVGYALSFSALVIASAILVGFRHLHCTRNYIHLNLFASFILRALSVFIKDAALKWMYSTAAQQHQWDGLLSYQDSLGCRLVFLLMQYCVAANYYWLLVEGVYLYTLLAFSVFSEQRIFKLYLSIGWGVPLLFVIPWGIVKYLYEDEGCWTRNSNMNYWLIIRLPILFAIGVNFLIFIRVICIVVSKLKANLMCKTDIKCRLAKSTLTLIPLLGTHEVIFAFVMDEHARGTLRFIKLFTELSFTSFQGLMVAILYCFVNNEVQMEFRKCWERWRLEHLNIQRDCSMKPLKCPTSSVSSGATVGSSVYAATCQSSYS
Description: The in vitro functional potency is the measure of target receptor activation in a whole cell assay.
In vitro functional potency was determined by measuring the response of the target receptor in a reporter gene assay in individual cell lines. […] When the respective receptor is activated, it results in the production of cAMP, which in turn results in expression of the luciferase protein. When assay incubation is completed, luciferase substrate (luciferin) is added resulting in the enzymatic conversion of luciferin to oxyluciferin and producing bioluminescence. The luminescence is measured as the readout for the assay.
The cells lines used in these assays were BHK cells with BHKTS13 as a parent cell line. The cell lines were derived from a clone containing the CRE luciferase element and were established by further transfection with the respective receptor to obtain the relevant cell line.
The cells were cultured at 37° C. with 5% CO2 in Cell Culture Medium. They were aliquoted and stored in liquid nitrogen. The cells were kept in continuous culture and were seeded out the day before each assay.
GLP-1R and GcgR Cell Culture Medium consisted of DMEM medium with 10% FBS, 500 μg/mL G418, and 300 μg/mL hygromycin. GIPR Cell Culture Medium consisted of DMEM medium with 10% FBS, 400 μg/mL G418, and 300 μg/mL hygromycin. Assay Buffer consisted of DMEM w/o phenol red, 10 mM Hepes, 1×Glutamax, 1% ovalbumin, and 0.1% Pluronic F-68 with the addition of HSA at twice the final assay concentration.
• 1) Cells were plated at 5000 cells/well and incubated overnight in the assay plate. • 2) Cells were washed once in DPBS. • 3) Stocks of the test compounds and reference compounds in concentrations ranging from 100-300 μM were diluted 1:150 in Assay Buffer. Compounds were then diluted 1:10 in column 1 of a 96 deep well dilution plate and then carried across the row creating a 3.5 fold, 12 point dilution curve. • 4) Assay Buffer (50 μl aliquot) with or without HSA was added to each well in the assay plate. • 5) A 50 μl aliquot of compound or blank was transferred from the dilution plate to the assay plate containing the Assay Buffer with or without HSA. • 6) The assay plate was incubated for 3 h in a 5% CO2 incubator at 37° C. 7) The cells were washed once with DPBS. • 8) A 100 μl aliquot of DPBS was added to each well of the assay plate. • 9) A 100 μl aliquot of steadylite plus reagent (light sensitive) was added to each well of the assay plate. • 10) Each assay plate was covered with aluminum foil to protect it from light and shaken at 250 RPM for 30 min at room temperature. • 11) Each assay plate was read in a microtiter plate reader.
The data from the microtiter plate reader was first regressed in an Excel in order to calculate the x-axis, log scale concentrations based on the individual test compound's stock concentration and the dilutions of the assay. […] The software performs a non-linear regression (log(agonist) vs response). A minimum of two replicates was measured for each sample. The reported values are averages of the replicates.

[3] = target: T2, mouse glucagon-like peptide 1 receptor (mouse, UniProt O35659 22-463); test: cell-based or functional assay
T2 sequence (looked up): T1 sequence (O35659 22-463)

[4] = DIO mice, 0.3 nmol/kg s.c. once daily, 30 days, mean ± SEM
[5] = DIO mice, 1.0 nmol/kg s.c. once daily, 30 days, mean ± SEM
[6] = DIO mice, 3.0 nmol/kg s.c. once daily, 10 days, mean ± SEM, n = 8
[7] = DIO mice, 3.0 nmol/kg s.c. once daily, 30 days, mean ± SEM
[8] = DIO mice, 0.3 nmol/kg s.c. once daily, mean ± SEM
[9] = DIO mice, 1.0 nmol/kg s.c. once daily, mean ± SEM
[10] = DIO mice, 3.0 nmol/kg s.c. once daily, mean ± SEM

Chain of human glucagon receptor (P47871 26-477): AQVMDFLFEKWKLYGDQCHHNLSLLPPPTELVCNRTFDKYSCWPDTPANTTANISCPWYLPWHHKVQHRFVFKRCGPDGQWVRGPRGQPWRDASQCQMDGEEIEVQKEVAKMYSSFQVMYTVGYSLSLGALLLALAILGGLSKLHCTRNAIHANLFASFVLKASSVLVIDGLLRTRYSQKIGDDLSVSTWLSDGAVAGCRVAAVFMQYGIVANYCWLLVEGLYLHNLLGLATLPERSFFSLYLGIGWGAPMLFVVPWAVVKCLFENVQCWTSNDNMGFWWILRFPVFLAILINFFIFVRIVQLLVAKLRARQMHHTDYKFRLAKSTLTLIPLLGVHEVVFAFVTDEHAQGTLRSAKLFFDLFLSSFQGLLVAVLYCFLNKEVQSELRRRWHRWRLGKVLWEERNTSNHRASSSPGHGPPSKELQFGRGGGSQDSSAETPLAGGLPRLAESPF

Compound: CC[C@H](C)[C@H](NC(=O)[C@H](CO)NC(=O)[C@H](Cc1ccc(O)cc1)NC(=O)[C@H](CC(=O)O)NC(=O)[C@H](CO)NC(=O)[C@@H](NC(=O)[C@H](Cc1ccccc1)NC(=O)[C@@H](NC(=O)CNC(=O)[C@H](CCC(=O)O)NC(=O)C(C)(C)NC(=O)[C@@H](N)Cc1ccc(O)cc1)[C@@H](C)O)[C@@H](C)O)C(=O)N[C@@H](Cc1ccc(O)cc1)C(=O)N[C@@H](CC(C)C)C(=O)N[C@@H](CC(=O)O)C(=O)N[C@@H](CCCCN)C(=O)N[C@@H](CCC(N)=O)C(=O)N[C@@H](C)C(=O)N[C@@H](C)C(=O)NC(C)(C)C(=O)N[C@@H](CCCCNC(=O)[C@@H](N)CCCCNC(=O)[C@@H](N)CCCCNC(=O)CC[C@H](NC(=O)CCCCCCCCCCCCCCCCC(=O)O)C(=O)O)C(=O)N[C@@H](Cc1ccccc1)C(=O)N[C@H](C(=O)N[C@@H](CC(N)=O)C(=O)N[C@@H](Cc1c[nH]c2ccccc12)C(=O)N[C@@H](CC(C)C)C(=O)N[C@@H](CC(C)C)C(=O)N[C@@H](C)C(=O)NCC(=O)NCC(=O)N1CCC[C@H]1C(=O)N[C@@H](CO)C(=O)N[C@@H](CO)C(=O)NCC(=O)N[C@@H](C)C(=O)N1CCC[C@H]1C(=O)N1CCC[C@H]1C(=O)N1CCC[C@H]1C(=O)N[C@@H](CO)C(N)=O)C(C)C [Compound 9] (H-Y[Aib]EGTFTSDYSIYLDKQAA[Aib]K([εLys-εLys-γGlu-C18 diacid])FVNWLLAGGPSSGAPPPS-NH2; N-terminus assumed)
Absolute BW Day 0 ([1]; DIO mice, 0.3 nmol/kg group, baseline Day 0 (30-day study), mean ± SEM): 66.5 ± 2.6 grams | Absolute BW Day 31 [1, 4]: 66.9 ± 3.2 grams | Change in BW Day 31 [1, 4]: 3.4 ± 1.7% | Cumulative food intake Day 31 ([1]; DIO mice, 0.3 nmol/kg s.c. once daily, 30 days, mean ± SEM, n = 2): 87.4 ± 5.9 grams | Performance compared with semaglutide surrogate in all parameters (in words) ([1]; DIO mice, 1.0 nmol/kg and 3.0 nmol/kg doses, 30 days): superior performance to semaglutide surrogate | Absolute BW Day 0 ([1]; DIO mice, 1.0 nmol/kg group, baseline Day 0 (30-day study), mean ± SEM): 70.0 ± 1.9 grams | Absolute BW Day 31 [1, 5]: 50.9 ± 2.2 grams | Change in BW Day 31 [1, 5]: −23.9 ± 2.6% | Cumulative food intake Day 31 ([1]; DIO mice, 1.0 nmol/kg s.c. once daily, 30 days, mean ± SEM, n = 2): 60.4 ± 4.5 grams | Absolute BW Day 0 ([1]; DIO mice, 3.0 nmol/kg group, baseline Day 0 (10-day study), mean ± SEM, n = 8): 63.8 ± 0.8 grams | Absolute BW Day 0 ([1]; DIO mice, 3.0 nmol/kg group, baseline Day 0 (30-day study), mean ± SEM): 65.8 ± 1.4 grams | Cumulative food intake Day 10 ([1]; DIO mice, 3.0 nmol/kg s.c. once daily, 10 days, mean ± SEM, n = 2): 8.3 ± 1.0 grams | Absolute BW Day 10 [1, 6]: 51.3 ± 0.9 grams | Change in BW Day 10 [1, 6]: −19.6 ± 0.7% | Absolute BW Day 31 [1, 7]: 40.0 ± 2.4 grams | Change in BW Day 31 [1, 7]: −39.1 ± 3.8% | Cumulative food intake Day 31 ([1]; DIO mice, 3.0 nmol/kg s.c. once daily, 30 days, mean ± SEM, n = 2): 46.4 ± 6.6 grams | Response on food intake, body weight and glucose tolerance (in words) ([1]; DIO mice, 0.3, 1.0 or 3.0 nmol/kg s.c. daily for 30 days): dose-dependent response | iAUC, IPGTT Day 31 ([2]; 0.3 nmol/kg s.c. once daily): 14979 ± 3423 mg·min/dL | iAUC, IPGTT Day 31 ([2]; 1.0 nmol/kg s.c. once daily): 7714 ± 1722 mg·min/dL | iAUC, IPGTT Day 31 ([2]; 3.0 nmol/kg s.c. once daily): 4073 ± 1764 mg·min/dL | EC50 (human glucagon receptor): > 10 nM | EC50 (mouse GLP-1 receptor): 2.5 pM

mGLP-1R, CRE Luc EC50 [3]: 3.5 pM
Compound: Human GLP-1(7-37) (from UniProt P01275 98-128) (ligand)

Compound: Tirzepatide: known GLP-1R/GIPR co-agonist used as reference [reference compound]
Absolute BW Day 0 ([1]; DIO mice, 0.3 nmol/kg group, baseline Day 0 (14-day study), mean ± SEM): 64.1 ± 1.7 grams | Absolute BW Day 14 [1, 8]: 58.2 ± 1.9 grams | Change in BW Day 14 [1, 8]: −9.4 ± 1.2% | Cumulative food intake Day 14 [1, 8]: 32.3 ± 1.9 grams | Absolute BW Day 0 ([1]; DIO mice, 1.0 nmol/kg group, baseline Day 0 (14-day study), mean ± SEM): 63.5 ± 1.6 grams | Absolute BW Day 14 [1, 9]: 49.8 ± 1.8 grams | Change in BW Day 14 [1, 9]: −21.0 ± 1.2% | Cumulative food intake Day 14 [1, 9]: 18.4 ± 0.7 grams | Absolute BW Day 0 ([1]; DIO mice, 3.0 nmol/kg group, baseline Day 0 (14-day study), mean ± SEM): 63.6 ± 2.5 grams | Absolute BW Day 14 [1, 10]: 45.1 ± 2.1 grams | Change in BW Day 14 [1, 10]: −29.0 ± 2.4% | Cumulative food intake Day 14 [1, 10]: 16.4 ± 2.3 grams | iAUC, IPGTT Day 15 ([2]; 0.3 nmol/kg s.c. once daily): 13005 ± 2962 mg·min/dL | iAUC, IPGTT Day 15 ([2]; 1.0 nmol/kg s.c. once daily): 10365 ± 3585 mg·min/dL | iAUC, IPGTT Day 15 ([2]; 3.0 nmol/kg s.c. once daily): 8974 ± 1804 mg·min/dL
